These results are taken from DBAASP.

Structures are written as SMILES. ≈ marks a conversion by molar mass, not a printed value. Where “and” joins values, the source holds several entries; their conditions need not be identical. Identical values can stand only once.

Assay in all cases: ≥ marks a high value that may be exact or a test limit, other limits are often not marked, values filed in µg/mL are converted to µM
The test system of experiment [1] is Staphylococcus aureus ATCC 25929.
The subject of experiment [2] is Escherichia coli ATCC 25922.
In experiment [3] the test system is Bacillus subtilis IFO 3513.
The test system of experiment [4] is Staphylococcus aureus IFO 12732.
Experiment [5] has as its system Escherichia coli IFO 12734.
Experiment [6] has as its system Salmonella enterica subsp. enterica serovar Paratyphi A.
The subject of experiment [7] is Staphylococcus epidermidis.
For experiment [8], the system named is Helicobacter pylori.
Experiment [9] deals with Escherichia coli.
Experiment [10] has as its system Listeria monocytogenes.
Experiment [11] deals with Staphylococcus aureus A170.
The subject of experiment [12] is Botrytis cinerea.
The subject of experiment [13] is Escherichia coli SBS 363.
Experiment [14] relates to Fusarium oxysporum.
Experiment [15] concerns Micrococcus luteus CIP 5345.
In experiment [16] the test system is Bacillus megaterium KCTC 1096.
Experiment [17] relates to Fusarium oxysporum KCTC 6084.
In experiment [18] the test system is Candida albicans KCTC 7121.
Experiment [19] concerns Bacillus subtilis KCTC 1918.
Experiment [20] deals with Pseudomonas aeruginosa KCTC 1637.
Experiment [21] relates to Trichosporon beigelii KCTC 7251.
In experiment [22] the test system is Proteus vulgaris.
The subject of experiment [23] is Aspergillus flavus KCTC 7375.
In experiment [24] the test system is Escherichia coli KCTC 1682.
For experiment [25], the system named is Staphylococcus aureus KCTC 1621.
For experiment [26], the system named is Salmonella enterica subsp. enterica serovar Typhi ATCC 5784.
Experiment [27] relates to Pseudomonas aeruginosa ATCC 27853.
The subject of experiment [28] is Bacillus megaterium.
Experiment [29] has as its system Lysinibacillus sphaericus TISTR 678.
The subject of experiment [30] is Escherichia coli O157:H7.
Experiment [31] deals with Staphylococcus aureus ATCC 25923.
Experiment [32] concerns Salmonella enterica subsp. enterica serovar Typhi DMST 22842.
In experiment [33] the test system is Vibrio cholerae non-O139.
Experiment [34] deals with Staphylococcus epidermidis ATCC 12228.
In experiment [35] the test system is Vibrio cholerae non-O1.
Experiment [36] deals with Salmonella enterica subsp. enterica serovar Typhi.
The test system of experiment [37] is Candida albicans ATCC 64550.

`CC(C)C[C@H](NC(=O)CNC(=O)[C@H](C)NC(=O)[C@H](CC(C)C)NC(=O)[C@H](CC(C)C)NC(=O)[C@@H](NC(=O)[C@H](CCCCN)NC(=O)[C@H](CC(C)C)NC(=O)[C@H](CC(C)C)NC(=O)[C@H](C)NC(=O)[C@@H]1CCCN1C(=O)[C@H](CC(C)C)NC(=O)[C@H](C)NC(=O)[C@@H](NC(=O)CNC(=O)[C@H](CC(C)C)NC(=O)[C@@H](N)CCCN=C(N)N)[C@@H](C)O)[C@@H](C)O)C(=O)N[C@@H](CC(N)=O)C(=O)NCC(N)=O` [RLGTALPALLKTLLAGLNG]: the minimal inhibitory concentration (MIC) in [1] and in experiment [2] was 17 µM (≈ 32.2 µg/mL) each time.
Consider `CC[C@H](C)[C@H](N)C(=O)N[C@@H](CC(C)C)C(=O)N1CCC[C@H]1C(=O)N[C@@H](Cc1c[nH]c2ccccc12)C(=O)N[C@@H](CCCCN)C(=O)N[C@@H](Cc1c[nH]c2ccccc12)C(=O)N1CCC[C@H]1C(=O)N[C@@H](Cc1c[nH]c2ccccc12)C(=O)N[C@@H](CC(C)C)C(=O)N1CCC[C@H]1C(=O)N[C@@H](CC(C)C)C(=O)N[C@@H](CCCN=C(N)N)C(=O)N[C@@H](CCCN=C(N)N)C(N)=O` [ILPWKWPWLPLRR], for which the MIC in experiment [3] was 28.4 µM (≈ 50 µg/mL); in experiment [4] it was 14.2 µM (≈ 25 µg/mL); in experiment [5] it was at least 56.8 µM.
Turning to `C[C@@H](O)[C@H](NC(=O)[C@H](CS)NC(=O)[C@H](Cc1ccccc1)NC(=O)[C@H](CS)NC(=O)[C@H](CCCN=C(N)N)NC(=O)[C@H](CCCN=C(N)N)NC(=O)[C@H](CCCN=C(N)N)NC(=O)[C@H](Cc1ccccc1)NC(=O)CNC(=O)[C@H](CCCN=C(N)N)NC(=O)[C@H](CS)NC(=O)[C@H](CC(N)=O)NC(=O)CNC(=O)CNC(=O)[C@H](CO)NC(=O)[C@@H](N)Cc1ccccc1)C(=O)N[C@@H](CCCCN)C(N)=O` [FSGGNCRGFRRRCFCTK], the minimal inhibitory concentration (MIC) in experiment [6] is 7.52 µM (≈ 15 µg/mL); in experiment [7], 20 µM (≈ 40 µg/mL); in experiment [8], 7.52 µM and 5.01 µM and 6.01 µM; in experiment [9], 7.52 µM (≈ 15 µg/mL); in experiment [10] it was 20 µM (≈ 40 µg/mL); in experiment [11], 20 µM (≈ 40 µg/mL).
For the compound `CC[C@H](C)[C@H](N)C(=O)N[C@@H](CC(C)C)C(=O)N[C@@H](CCC(=O)O)C(=O)N[C@@H](CC(N)=O)C(=O)N[C@@H](CC(C)C)C(=O)N[C@@H](CC(C)C)C(=O)N[C@@H](C)C(=O)N[C@@H](CCCN=C(N)N)C(=O)N[C@@H](CO)C(=O)N[C@H](C(=O)N[C@@H](CC(N)=O)C(=O)N[C@@H](CCC(=O)O)C(=O)N[C@@H](CC(=O)O)C(=O)N[C@@H](CCCN=C(N)N)C(=O)N[C@@H](CCC(=O)O)C(=O)NCC(=O)N[C@@H](CO)C(=O)N[C@H](C(=O)N[C@@H](Cc1ccccc1)C(=O)O)[C@@H](C)CC)[C@@H](C)O` [ILENLLARSTNEDREGSIF], the MIC in experiment [12], in [13], in experiment [14] and in experiment [15] was at least 200 µM throughout.
`CC[C@H](C)[C@H](NC(=O)[C@H](CCCCN)NC(=O)[C@H](CCCCN)NC(=O)[C@H](Cc1ccccc1)NC(=O)[C@H](CC(C)C)NC(=O)[C@H](CCCCN)NC(=O)[C@H](Cc1c[nH]c2ccccc12)NC(=O)[C@@H](N)CCCCN)C(=O)N1CCC[C@H]1C(=O)N[C@@H](CCCCN)C(=O)N[C@@H](Cc1ccccc1)C(=O)N[C@@H](CC(C)C)C(=O)N[C@@H](Cc1cnc[nH]1)C(=O)N[C@@H](CC(C)C)C(=O)N[C@@H](C)C(=O)N[C@@H](CCCCN)C(N)=O` [KWKLFKKIPKFLHLAK]: the MIC in experiment [16] is 3.12 µM (≈ 6.33 µg/mL); in [17], at least 50 µM; in experiment [18], at least 50 µM; in experiment [19] it was 1.56 µM (≈ 3.16 µg/mL); in [20], 6.25 µM (≈ 12.7 µg/mL); in experiment [21], at least 50 µM. In addition, the MIC is 1.56 µM (≈ 3.16 µg/mL) in [22], at least 50 µM in experiment [23], 4.42 µM (≈ 8.95 µg/mL) in [24] and 3.12 µM (≈ 6.33 µg/mL) in [25].
In the case of `CC(C)[C@H](NC(=O)CNC(=O)[C@@H](N)CC(N)=O)C(=O)N[C@@H](CCC(N)=O)C(=O)N1CCC[C@H]1C(=O)N[C@@H](CCCCN)C(=O)N[C@@H](Cc1ccc(O)cc1)C(=O)O` [NGVQPKY], the MIC in experiment [26] is at least 64 µM; in experiment [27], above 248 µM; in experiment [7] it was 31.1 µM (≈ 25 µg/mL); in [28], at least 64 µM; in experiment [29] it was at least 64 µM; in experiment [30], at least 64 µM. For the same compound, the MIC in experiment [31] was above 248 µM; in [32], at least 248 µM; in [33], at least 248 µM; in experiment [2], above 248 µM; in experiment [34] it was above 248 µM; in experiment [35], at least 248 µM. In [36], the MIC is 31.1 µM and ≥ 64 µM.
Consider `CC(C)C[C@H](NC(=O)[C@H](Cc1c[nH]c2ccccc12)NC(=O)[C@@H](N)CCCCN)C(=O)N[C@@H](CCCN=C(N)N)C(=O)N[C@@H](CCCN=C(N)N)C(=O)N[C@H](C(=O)N[C@@H](Cc1c[nH]c2ccccc12)C(=O)N[C@@H](CCCN=C(N)N)C(=O)N[C@@H](Cc1c[nH]c2ccccc12)C(=O)N[C@@H](Cc1c[nH]c2ccccc12)C(=O)N[C@@H](CCCN=C(N)N)C(N)=O)C(C)C` [KWLRRVWRWWR], for which the MIC in experiment [27] was 20 µM (≈ 34.5 µg/mL); in [31], 2.5 µM (≈ 4.32 µg/mL); in [2], 15 µM (≈ 25.9 µg/mL); in experiment [37] it was at least 100 µM.
